row,SMILES,melting point
1,"O=C(O)Cc1csc2cc(SCc3cccc4nc(-c5ccc(C(F)(F)F)cc5)oc34)ccc12 [Example 71, 6-[2-(4-Trifluoromethylphenyl)benzooxazol-7-ylmethylsulfanyl]benzo[b]thiophen-3-ylacetic Acid]",208 to 210 °C
2,"Cc1cc(SCc2cccc3nc(-c4ccc(C(F)(F)F)cc4)oc23)ccc1OCC(=O)O [Example 74, 2-Methyl-4-[2-(4-trifluoromethylphenyl)benzooxazol-7-ylmethylsulfanyl]phenoxyacetic Acid]",172 to 174 °C
3,"Cc1cc(SC(C)(C)c2cccc3nc(-c4ccc(C(F)(F)F)cc4)oc23)ccc1CCC(=O)O [Example 76, 3-(2-Methyl-4-{1-methyl-1-[2-(4-trifluoromethylphenyl)benzooxazol-7-yl]ethylsulfanyl}phenyl)propionic Acid]",104 to 107 °C
4,"CC(C)(Sc1ccc2c(CC(=O)O)csc2c1)c1cccc2nc(-c3ccc(C(F)(F)F)cc3)oc12 [Example 78, 6-{1-Methyl-1-[2-(4-trifluoromethylphenyl)benzooxazol-7-yl]ethylsulfanyl}benzo[b]thiophen-3-ylacetic Acid]",110 to 113 °C
5,"Cc1cc(SCc2cccc3[nH]c(-c4ccc(C(F)(F)F)cc4)nc23)ccc1CCC(=O)O [Example 86, 3-{2-Methyl-4-[2-(4-trifluoromethylphenyl)-1H-benzoimidazol-4-ylmethylsulfanyl]phenyl}propionic Acid]",214 to 216 °C
6,"CCc1cc(SCc2cccc3[nH]c(-c4ccc(C(F)(F)F)cc4)nc23)ccc1OCC(=O)O [Example 87, 2-Ethyl-4-[2-(4-trifluoromethylphenyl)-1H-benzoimidazol-4-ylmethylsulfanyl]phenoxyacetic Acid]",223 °C (dec.)
7,"Cc1cc(SCc2cccc3c2nc(-c2ccc(C(F)(F)F)cc2)n3C)ccc1OCC(=O)O [Example 89, 2-Methyl-4-[1-methyl-2-(4-trifluoromethylphenyl)-1H-benzoimidazol-4-ylmethylsulfanyl]phenoxyacetic Acid]",192 to 194 °C

# Other lines, results leading:
row,melting point,SMILES
1,170 to 173 °C,"CCc1cc(SCc2cccc3nc(-c4ccc(C(F)(F)F)cc4)oc23)ccc1OCC(=O)O [Example 72, 2-Ethyl-4-[2-(4-trifluoromethylphenyl)benzooxazol-7-ylmethylsulfanyl]phenoxyacetic Acid]"
2,147 to 149 °C,"O=C(O)Cc1cccc(SCc2cccc3nc(-c4ccc(C(F)(F)F)cc4)oc23)c1 [Example 73, 3-[2-(4-Trifluoromethylphenyl)benzooxazol-7-ylmethylsulfanyl]phenylacetic Acid]"
3,131 to 133 °C,"Cc1cc(SC(C)(C)c2cccc3nc(-c4ccc(C(F)(F)F)cc4)oc23)ccc1OCC(=O)O [Example 75, 2-Methyl-4-{1-methyl-1-[2-(4-trifluoromethylphenyl)benzooxazol-7-yl]ethylsulfanyl}phenoxyacetic Acid]"
4,122 to 125 °C,"CCc1cc(SC(C)(C)c2cccc3nc(-c4ccc(C(F)(F)F)cc4)oc23)ccc1OCC(=O)O [Example 77, 2-Ethyl-4-{1-methyl-1-[2-(4-trifluoromethylphenyl)benzooxazol-7-yl]ethylsulfanyl}phenoxyacetic Acid]"
5,238 to 240 °C (dec.),"Cc1cc(SCc2cccc3[nH]c(-c4ccc(C(F)(F)F)cc4)nc23)ccc1OCC(=O)O [Example 85, 2-Methyl-4-[2-(4-trifluoromethylphenyl)-1H-benzoimidazol-4-ylmethylsulfanyl]phenoxyacetic Acid]"
6,180 to 183 °C,"O=C(O)Cc1cccc(SCc2cccc3[nH]c(-c4ccc(C(F)(F)F)cc4)nc23)c1 [Example 88, 3-[2-(4-Trifluoromethylphenyl)-1H-benzoimidazol-4-ylmethylsulfanyl]phenylacetic Acid]"
7,168 to 170 °C,"Cc1cc(SCc2cccc3c2nc(-c2ccc(C(F)(F)F)cc2)n3C)ccc1CCC(=O)O [Example 90, 3-{2-Methyl-4-[1-methyl-2-(4-trifluoromethylphenyl)-1H-benzoimidazol-4-ylmethylsulfanyl]phenyl}propionic Acid]"

# — patent US7384965B2, “Fused heterocyclic derivatives as PPAR modulators” (Eli Lilly and Company, priority 2003, dated 2008)
